How the values were obtained:
Type in all cases: cell-based
[1] = tested on: bacterial growth of samples; assay: Detection apparatus, bacterial growth with antibiotics at EUCAST breakpoint, FIG. 8(a) / Table 1; parameters: key to S or R result (sensitive / resistant): S: sensitive; R: resistant; conditions: Table 1, FIG. 8(a); antibiotic at EUCAST breakpoint concentration
Procedure: (§1) FIG. 8(a) and FIG. 8(b) are plots showing bacterial growth of samples as a function of time in the presence of different types of antibiotics. FIGS. 8(a) and 8(b) illustrate break points for different types of antibiotics. Measurements derived using the data shown in FIGS. 8(a) and 8(b) are shown in Table 1 and Table 2, respectively.
(§2) At a fourth step, a test process is performed that includes incubation and obtaining readings. Tests will typically run for a maximum of 30 minutes.
(§3) At a fifth step, an analysis process is performed based on the readings obtained from the test process. The analysis process includes determining if the strain is sensitive or resistant to the or an antibiotic or other agent in the sample chamber based on the obtained readings. Determining whether a sample is sensitive or resistant to an antibiotic or other agent may be referred to as obtaining an S result or an R result. Determining if a sample is a S result or an R result may include comparing a reading to threshold criteria.
(§4) As a first example, if the sample fails to show a 50% inhibition, the sample will be declared R after 30 minutes. In some embodiments, the analysis process includes providing sensitivity results.

Klebsiella = assay: Bacterial growth over time in urine samples with different antibiotics (FIG. 10); conditions: urine samples containing Klebsiella; growth curve compared with control line
Procedure: As a first stage a biological sample containing urine is obtained. A spinning process is applied to the sample and the sample is aliquoted or otherwise divided into wells. The samples are then incubated in an incubator. After a pre-determined time, each sample, in a sample chamber, is moved into a detection configuration with the detection apparatus. This may involve placing the sample in a cuvette into the sample chamber. This may involve sequentially moving a plurality of sample chambers into the detection configuration. More than one measurement for each sample may be performed and stored to establish growth curves, for example, those shown in FIGS. 6, 7, 8 and 10.
FIG. 10 is a plot of bacterial growth as a function of time in urine samples in the presence of different types of antibiotics. The urine samples contain a significant amount of Klebsiella resistant to meropenem and susceptible to penicillin, amoxicillin, gentamicin and ciprofloxacin. The control line is the upper most line.
The second upper most line correspond to results for a urine sample treated with meropenem. The second upper most line overlaps in part with the control line. The urine sample is thus shown to be resistant to meropenem. The other lines correspond to results for urine samples treated with ciprofloxacin, gentamicin, penicillin and amoxicillin.

[2] = tested on: bacterial growth of samples; assay: Reference susceptibility test (Vitek 2), sample of FIG. 8(b) / Table 2; conditions: Table 2, sample of FIG. 8(b)
Description: as §1

[3] = tested on: bacterial growth of samples; assay: Detection apparatus, bacterial growth with antibiotics at EUCAST breakpoint, FIG. 8(b) / Table 2; parameters: key to S or R result (sensitive / resistant): S: sensitive; R: resistant; conditions: Table 2, FIG. 8(b); antibiotic at EUCAST breakpoint concentration
Procedure: as §1, §2, §3, §4

[4] = tested on: bacterial growth of samples; assay: Reference susceptibility test (Vitek 2), sample of FIG. 8(a) / Table 1; conditions: Table 1, sample of FIG. 8(a)
Description: as §1

E. coli = assay: Bacterial growth over time by light scattering at different antibiotic concentrations (FIGS. 6 and 7); conditions: from plot of detector output vs time
Description: Any suitable detection and analysis system may be used with the embodiments of FIGS. 1 to 5. In some embodiments a detection and analysis system as described in WO 2016/128747 is used. The content of WO 2016/128747 is hereby incorporated by reference. In some embodiments a light source in the form of a 635 nm wavelength laser is used (any light in the wavelength range 620-750 nm is used in some other embodiments). The laser in this embodiment is connected to a signal generator that is adapted to control a modulation frequency and phase of the laser output. The photodetector is connected to a digital phase sensitive detector (PSD). An input of an amplifier is connected to the signal generator. An output of the amplifier is connected to a digital oscilloscope 66. […]
The signal generator is arranged to modulate the output frequency of the laser source. […] The detected signal is filtered by the PSD. The PSD filters the detected signal from the photodetector. The PSD synchronizes the detected signal with the modulation applied to the light source to provide a dampening system that eliminates unwanted noise, for example, background electrical or luminous noise. The filtered signal is sent to the digital oscilloscope to be recorded. […]

| Compound | S or R result (sensitive / resistant) [1] | Time To Results [1] [min] | susceptibility of bacteria in urine sample (Klebsiella) | Reference (Vitek 2 result) [2] | S or R result (sensitive / resistant) [3] | Time To Results [3] [min] | Reference (Vitek 2 result) [4] [Mg/L] | mode of action (E. coli) | minimum inhibitory concentration (MIC) (E. coli) |
| --- | --- | --- | --- | --- | --- | --- | --- | --- | --- |
| CC1(C)S[C@@H]2[C@H](NC(=O)[C@H](N)c3ccc(O)cc3)C(=O)N2[C@H]1C(=O)O [Amoxicillin] | (S) | 2.93 | susceptible | – | – | – | – | – | – |
| CC1(C)S[C@@H]2[C@H](NC(=O)[C@H](N)c3ccccc3)C(=O)N2[C@H]1C(=O)O [Ampicillin] | – | – | – | >0.5 Mg/L | (R) | >30 | 8 | – | – |
| O=C(O)c1cn(C2CC2)c2cc(N3CCNCC3)c(F)cc2c1=O [Ciprofloxacin] | (S) | 4.4 | susceptible | 0.5 Mg/L | (S) | 3.37 | ≤0.25 | – | – |
| CC[C@H]1OC(=O)[C@H](C)[C@@H](O[C@H]2C[C@@](C)(OC)[C@@H](O)[C@H](C)O2)[C@H](C)[C@@H](O[C@@H]2O[C@H](C)C[C@H](N(C)C)[C@H]2O)[C@](C)(O)C[C@@H](C)C(=O)[C@H](C)[C@@H](O)[C@]1(C)O [Erythromycin] | – | – | – | 1 Mg/L | (S) | 3.3 | – | – | – |
| C[C@@H](O)[C@H]1C(=O)N2C(C(=O)O)=C(S[C@@H]3CN[C@H](C(=O)N(C)C)C3)[C@H](C)[C@H]12 [Meropenem, meropenem] | (S) | 2.57 | resistant | – | (S) | 2.2 | ≤0.25 | causes lysis and a reduction in scattering | – |
| COc1c(N2C[C@@H]3CCCN[C@@H]3C2)c(F)cc2c(=O)c(C(=O)O)cn(C3CC3)c12 [Moxifloxacin] | – | – | – | – | – | – | ≤0.25 | – | – |
| O=C1CN(/N=C/c2ccc([N+](=O)[O-])o2)C(=O)N1 [Nitrofurantoin] | – | – | – | 16 Mg/L | (S) | 3.37 | – | – | – |
| COc1cc(Cc2cnc(N)nc2N)cc(OC)c1OC [Trimethoprim] | (S) | 0.73 | – | 0.5-2 Mg/L | (S) | 7.33 | ≤0.5 | – | – |
| CN[C@H](CC(C)C)C(=O)N[C@H]1C(=O)N[C@@H](CC(N)=O)C(=O)N[C@H]2C(=O)N[C@H]3C(=O)N[C@H](C(=O)N[C@H](C(=O)O)c4cc(O)cc(O)c4-c4cc3ccc4O)[C@H](O)c3ccc(c(Cl)c3)Oc3cc2cc(c3O[C@@H]2O[C@H](CO)[C@@H](O)[C@H](O)[C@H]2O[C@H]2C[C@](C)(N)[C@H](O)[C@H](C)O2)Oc2ccc(cc2Cl)[C@H]1O [Vancomycin] | – | – | – | 1 Mg/L | (S) | 7.33 | – | – | – |
| Augmentin (co-amox) | (S) | 2.2 | – | ≤2 Mg/L | (R) | >30 | 2 | – | – |
| gentamicin | (S) | 0.73 | susceptible | 0.5-8 Mg/L | (S) | 0.37 | ≤1 | – | below 2 mg/L |
| penicillin | – | – | susceptible | – | – | – | – | – | – |
